In PubChem BioAssay AID330 (DTP/NCI, 2004) one finds T/C data, which are given here for 18 molecules.

“And” between values parts separate entries of the source, which are not always exact repeats. Equal values may be shown once. Toxic doses and inconclusive results are not listed.

The assay concerns P388 leukemia ip, CD2F1 mice, survival T/C. The assay can be described thus: NCI In Vivo Anticancer Drug Screen. Data for tumor model P388 Leukemia (intraperitoneal) in CD2F1 (CDF1) mice. The note with it: endpoint: median survival time, higher = longer survival. Put shortly: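 Mice carrying the transplanted tumor received test compound or vehicle. Survival was recorded in each group, and the value is the treated-group measurement divided by that of the vehicle-treated control group.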

The mark [1] stands for this setting: dose: 50.0 mg/kg/injection, schedule: Q01DX005 (ip), vehicle: saline with Tween-80.
[2] abbreviates: dose: 100.0 mg/kg/injection, schedule: Q01DX005 (ip), vehicle: saline with Tween-80.
The mark [3] stands for this setting: dose: 200.0 mg/kg/injection, schedule: Q01DX005 (ip), vehicle: saline with Tween-80.
[4] abbreviates: dose: 50.0 mg/kg/injection, schedule: Q01DX005 (ip), vehicle: saline.
The mark [5] stands for this setting: dose: 50.0 mg/kg/injection, schedule: Q01DX005 (ip), vehicle: Klucel (hydroxypropylcellulose) (HPC).
Setting [6] is: dose: 100.0 mg/kg/injection, schedule: Q01DX005 (ip), vehicle: Klucel (hydroxypropylcellulose) (HPC).
The mark [7] stands for this setting: dose: 200.0 mg/kg/injection, schedule: Q01DX005 (ip), vehicle: Klucel (hydroxypropylcellulose) (HPC).
Where [8] appears, read: dose: 50.0 mg/kg/injection, schedule: Q01DX005 (ip), vehicle: saline + Tween-80 + alcohol.
Where [9] appears, read: dose: 100.0 mg/kg/injection, schedule: Q01DX005 (ip), vehicle: saline + Tween-80 + alcohol.

For `Cn1c2ccccc2c2nnc(N/N=C/c3cccnc3)nc21`, the T/C runs as follows: (dose: 100.0 mg/kg/injection, schedule: Q04DX002 (ip), vehicle: saline with Tween-80) 91 % of control; (dose: 200.0 mg/kg/injection, schedule: Q04DX002 (ip), vehicle: saline with Tween-80) 86 % of control and 90 % of control; (dose: 400.0 mg/kg/injection, schedule: Q04DX002 (ip), vehicle: saline with Tween-80) 99 % of control and 90 % of control and 95 % of control.
For the molecule `Cc1nc(SCC(N)=O)nc2sc(SCC(N)=O)nc12`, the T/C reads like this: (dose: 100.0 mg/kg/injection, schedule: Q04DX002 (ip), vehicle: suspension in saline) 96 % of control; (dose: 200.0 mg/kg/injection, schedule: Q04DX002 (ip), vehicle: suspension in saline) 99 % of control; (dose: 400.0 mg/kg/injection, schedule: Q04DX002 (ip), vehicle: suspension in saline) 98 % of control.
As for `O=c1c(Cl)c2cc3c(cc2c2ccccc12)nc1ccccc1n3C1CCCCC1`, the T/C by setting is: (dose: 50.0 mg/kg/injection, schedule: Q01DX009 (ip), vehicle: saline with Tween-80) 88 % of control; (dose: 100.0 mg/kg/injection, schedule: Q01DX009 (ip), vehicle: saline with Tween-80) 94 % of control; (dose: 200.0 mg/kg/injection, schedule: Q01DX009 (ip), vehicle: saline with Tween-80) 98 % of control.
Regarding `COC(=O)c1c(OC)cc2c(Cl)c3c(c(O)c2c1C)C(=O)[C@@]1(O)C(=O)C=C(OC)[C@H](O)[C@@]1(O)C3=O`, the T/C is, setting by setting: (dose: 12.5 mg/kg/injection, schedule: Q01DX005 (ip), vehicle: saline with Tween-80) 104 % of control; (dose: 25.0 mg/kg/injection, schedule: Q01DX005 (ip), vehicle: saline with Tween-80) 109 % of control; under setting [1], 95 % of control; under setting [2], 104 % of control; under setting [3], 110 % of control.
As for `COc1cc(NC(=O)N(CCCl)N=O)cc(OC)c1OC`, the T/C is 107 % of control (dose: 0.18 mg/kg/injection, schedule: Q01DX009 (ip), vehicle: alcohol); 109 % of control (dose: 0.27 mg/kg/injection, schedule: Q01DX009 (ip), vehicle: alcohol); 100 % of control (dose: 0.4 mg/kg/injection, schedule: Q01DX009 (ip), vehicle: alcohol); 107 % of control (dose: 0.6 mg/kg/injection, schedule: Q01DX009 (ip), vehicle: alcohol); 173 % of control (dose: 1.33 mg/kg/injection, schedule: Q01DX009 (ip), vehicle: saline + alcohol); 170 % of control (dose: 2.0 mg/kg/injection, schedule: Q01DX009 (ip), vehicle: saline + alcohol). For the same molecule, the T/C (dose: 7.5 mg/kg/injection, schedule: Q04DX003 (ip), vehicle: saline + alcohol) is 154 % of control; the T/C (dose: 12.5 mg/kg/injection, schedule: Q04DX003 (ip), vehicle: other) is 215 % of control; the T/C (dose: 25.0 mg/kg/injection, schedule: Q04DX003 (ip), vehicle: other) was 280 % of control; the T/C (dose: 50.0 mg/kg/injection, schedule: Q04DX003 (ip), vehicle: other) was 300 % of control.
As to `CC12CCC3C(CCC4CC(OC(=O)Cc5ccc(N(CCCl)CCCl)cc5)CCC43C)C1CCC(=O)N2` (stereo not drawn), the T/C (dose: 0.75 mg/kg/injection, schedule: Q01DX009 (ip), vehicle: saline with Tween-80) is 112 % of control and 117 % of control; the T/C (dose: 1.5 mg/kg/injection, schedule: Q01DX009 (ip), vehicle: saline with Tween-80) was 111 % of control and 124 % of control; the T/C (dose: 6.0 mg/kg/injection, schedule: Q01DX009 (ip), vehicle: saline with Tween-80) was 169 % of control and 184 % of control; the T/C (dose: 12.0 mg/kg/injection, schedule: Q01DX009 (ip), vehicle: saline with Tween-80) was 220 % of control and 237 % of control; the T/C (dose: 24.0 mg/kg/injection, schedule: Q01DX009 (ip), vehicle: saline with Tween-80) is 104 % of control and 121 % of control.
Take `CC(=O)OCC#CCN1CCOCC1`: the T/C was 124 % of control under setting [4]; 102 % of control (dose: 60.0 mg/kg/injection, schedule: Q01DX005 (ip), vehicle: suspension in saline); 100 % of control (dose: 120.0 mg/kg/injection, schedule: Q01DX005 (ip), vehicle: suspension in saline).
On to `OC(c1cc(F)c(F)c(F)c1F)(C(F)(F)F)C(F)(F)F`, for which the T/C (dose: 100.0 mg/kg/injection, schedule: Q04DX003 (ip), vehicle: suspension in saline) is 98 % of control; the T/C (dose: 200.0 mg/kg/injection, schedule: Q04DX003 (ip), vehicle: suspension in saline) was 104 % of control; the T/C (dose: 400.0 mg/kg/injection, schedule: Q04DX003 (ip), vehicle: suspension in saline) was 101 % of control.
Take `O=C(NCC(=O)N1CCCC1)N/N=C/c1ccccc1O`: the T/C under setting [5] was 102 % of control, the T/C under setting [6] was 102 % of control and the T/C under setting [7] was 98 % of control.
As for `N#C[C@H]1C[C@@H](c2ccccc2)N(c2ccccc2)O1`, the T/C runs as follows: under setting [8], 98 % of control; under setting [9], 100 % of control; (dose: 200.0 mg/kg/injection, schedule: Q01DX005 (ip), vehicle: saline + Tween-80 + alcohol) 100 % of control.
On to `Sc1ccccc1N=Cc1cccs1`, for which the T/C reads like this: (dose: 50.0 mg/kg/injection, schedule: Q01DX009 (ip), vehicle: saline) 90 % of control; (dose: 100.0 mg/kg/injection, schedule: Q01DX009 (ip), vehicle: saline) 99 % of control; (dose: 200.0 mg/kg/injection, schedule: Q01DX009 (ip), vehicle: saline) 96 % of control.
For `CSCCC(NC(=O)c1cnc2ccccc2c1)C(N)=O` (stereo not drawn), the T/C (dose: 60.0 mg/kg/injection, schedule: Q01DX005 (ip), vehicle: saline with Tween-80) was 103 % of control; the T/C (dose: 120.0 mg/kg/injection, schedule: Q01DX005 (ip), vehicle: saline with Tween-80) was 97 % of control; the T/C (dose: 240.0 mg/kg/injection, schedule: Q01DX005 (ip), vehicle: saline with Tween-80) is 87 % of control.
As for `CCC(=O)Nc1nnc(SCCCCCCCCCCSc2nnc(NC(=O)CC)s2)s1`, the T/C is 89 % of control under setting [5], 91 % of control under setting [6] and 87 % of control under setting [7].
With `COc1ccc([N+](=O)[O-])cc1Nc1c2ccccc2nc2ccccc12`, the T/C by setting is: (dose: 50.0 mg/kg/injection, schedule: Q01DX009 (ip), vehicle: suspension in saline) 100 % of control; (dose: 100.0 mg/kg/injection, schedule: Q01DX009 (ip), vehicle: suspension in saline) 110 % of control; (dose: 200.0 mg/kg/injection, schedule: Q01DX009 (ip), vehicle: suspension in saline) 101 % of control.
As for `COC(=O)c1nc(=S)[nH]c(C(=O)OC)c1C(=O)/C=C/c1ccccc1`, the T/C is 104 % of control (dose: 60.0 mg/kg/injection, schedule: Q01DX005 (ip), vehicle: saline + Tween-80 + alcohol) and 100 % of control (dose: 120.0 mg/kg/injection, schedule: Q01DX005 (ip), vehicle: saline + Tween-80 + alcohol).
For `CCCCN(CCCC)CCCCCCCC(O)c1cc2ccccc2c2ccccc12` (stereo not drawn), the T/C under setting [8] is 113 % of control and the T/C under setting [9] is 110 % of control.
Take `Cc1ccc(CN2CCN(Cc3ccc(C)o3)C(C)C2)o1` (stereo not drawn): the T/C is 101 % of control under setting [4]; 101 % of control (dose: 100.0 mg/kg/injection, schedule: Q01DX005 (ip), vehicle: saline); 100 % of control (dose: 200.0 mg/kg/injection, schedule: Q01DX005 (ip), vehicle: saline).
Regarding `COCCn1nc(-c2ccc(Cl)cc2)c(-c2ccc(Cl)cc2)c(C(C)=O)c1=O`, the T/C by setting is: under setting [1], 100 % of control; under setting [2], 100 % of control; under setting [3], 93 % of control.
